Earlier results, collected in article PMC10323144, “Garbage in, garbage out: how reliable training data improved a virtual screening approach against SARS-CoV-2 MPro” (Frontiers in Pharmacology, 2023).
Square brackets hold non-standard residues; d marks the D form. Peptide text beside a SMILES is read from it. * marks the point of attachment. Cbz = O=C(OCc1ccccc1)*; Nva = CCC[CH](N)C(=O)O

System: MPro
Settings: compiled from peer-reviewed sources (287 compounds) ref the 18 original articles; cited from earlier work

Molecule	Class (MPro activity class)
COc1c(O[C@@H]2O[C@H](C(=O)O)[C@@H](O)[C@H](O)[C@H]2O)cc(O)c2c(=O)cc(-c3ccccc3)oc12 [Wogonoside]	0 (compounds with IC50 > 20 μM, percentage inhibition <80% at 20 µM or 50 μM, or percentage enzyme inhibition <50% at 10 µM were labelled as INACTIVE)
CC(C)C[C@H](NC(=O)CNC(=O)c1cc(Cl)ccc1Cl)B(O)O [MLN2238]	0 (compounds with IC50 > 20 μM, percentage inhibition <80% at 20 µM or 50 μM, or percentage enzyme inhibition <50% at 10 µM were labelled as INACTIVE)
O=c1[nH]cc(-c2cc(-c3cc(Cl)cc(OCc4ccc(F)cc4Cl)c3)c(=O)n(-c3cccnc3)c2)c(=O)[nH]1 [compound 22]	1 (Compounds with IC50 < 10 µM or with a percentage of enzyme inhibition >50% at 10 µM were labelled as ACTIVE)
O=C(NC(Cc1ccccc1)C(=O)NC(CC1CCNC1=O)C(O)S(=O)(=O)O)OCc1ccccc1 (centres unmarked) [UAWJ247]	1 (Compounds with IC50 < 10 µM or with a percentage of enzyme inhibition >50% at 10 µM were labelled as ACTIVE)
COc1cccc2[nH]c(C(=O)NC(CC(C)C)C(=O)NC(CC3CCNC3=O)C(=O)c3nc4ccccc4s3)cc12 (centres unmarked) [5h]	1 (Compounds with IC50 < 10 µM or with a percentage of enzyme inhibition >50% at 10 µM were labelled as ACTIVE)
CC(C)Nc1cccnc1N1CCN(C(=O)c2cc3cc(NS(C)(=O)=O)ccc3[nH]2)CC1 [Delavirdine]	0 (compounds with IC50 > 20 μM, percentage inhibition <80% at 20 µM or 50 μM, or percentage enzyme inhibition <50% at 10 µM were labelled as INACTIVE)
COc1ccccc1OCCNC(=O)c1cc(=O)[nH]c2ccccc12 [MAT-POS-916a2c5a-2]	1 (Compounds with IC50 < 10 µM or with a percentage of enzyme inhibition >50% at 10 µM were labelled as ACTIVE)
Cc1cc(C(=O)CN2CCCC2)c(C)n1-c1ccc(F)cc1 [IU1 S7134]	0 (compounds with IC50 > 20 μM, percentage inhibition <80% at 20 µM or 50 μM, or percentage enzyme inhibition <50% at 10 µM were labelled as INACTIVE)
CN(C)c1ccc(N(Cc2ccsc2)C(=O)Cn2nnc3ccccc32)cc1 [ALP-POS-d2866bdf-1]	1 (Compounds with IC50 < 10 µM or with a percentage of enzyme inhibition >50% at 10 µM were labelled as ACTIVE)
N#Cc1ccccc1-c1cc(-c2ccccn2)cn(-c2ccccc2)c1=O [1 (perampanel), perampanel]	0 (compounds with IC50 > 20 μM, percentage inhibition <80% at 20 µM or 50 μM, or percentage enzyme inhibition <50% at 10 µM were labelled as INACTIVE)
O=c1cc(-c2ccccc2)oc2cc(O)c(O)cc12 [6,7-Dihydroxyflavone]	0 (compounds with IC50 > 20 μM, percentage inhibition <80% at 20 µM or 50 μM, or percentage enzyme inhibition <50% at 10 µM were labelled as INACTIVE)
COCCOc1cc(Cl)cc(-c2cc(-c3ccccc3C#N)cn(-c3cccnc3)c2=O)c1 [compound 6]	1 (Compounds with IC50 < 10 µM or with a percentage of enzyme inhibition >50% at 10 µM were labelled as ACTIVE)
O=C1c2c(O)cc(O)cc2O[C@H](c2cc(O)c(O)c(O)c2)[C@H]1O [Dihydromyricetin]	1 (Compounds with IC50 < 10 µM or with a percentage of enzyme inhibition >50% at 10 µM were labelled as ACTIVE)
O=CC(CC1CCNC1=O)NC(=O)C(Cc1cccc(F)c1)NC(=O)c1cc2ccccc2[nH]1 (centres unmarked) [11b]	1 (Compounds with IC50 < 10 µM or with a percentage of enzyme inhibition >50% at 10 µM were labelled as ACTIVE)
O=C(CCl)N1CCN(S(=O)(=O)c2c(F)cccc2F)CC1 [LON-WEI-8f408cad-2]	1 (Compounds with IC50 < 10 µM or with a percentage of enzyme inhibition >50% at 10 µM were labelled as ACTIVE)
CCCCCOc1cc(Cl)cc(-c2cc(-c3c[nH]c(=O)[nH]c3=O)cn(-c3cccnc3)c2=O)c1 [compound 13]	1 (Compounds with IC50 < 10 µM or with a percentage of enzyme inhibition >50% at 10 µM were labelled as ACTIVE)
COc1cc([C@H]2OC[C@H]3[C@@H]2CO[C@H]3c2ccc(OC)c(OC)c2)ccc1O [Phillygenin]	0 (compounds with IC50 > 20 μM, percentage inhibition <80% at 20 µM or 50 μM, or percentage enzyme inhibition <50% at 10 µM were labelled as INACTIVE)
COC(=O)C1=CO[C@@H](O[C@@H]2O[C@H](CO)[C@@H](O)[C@H](O)[C@H]2O)[C@@H]2[C@@H](C)[C@@H](O)C[C@H]12 [Loganin]	0 (compounds with IC50 > 20 μM, percentage inhibition <80% at 20 µM or 50 μM, or percentage enzyme inhibition <50% at 10 µM were labelled as INACTIVE)
CC1C=CC=CC=CC=CC=CC=CC=CC(OC2OC(C)C(O)C(N)C2O)CC(O)C(C(=O)O)C(O)CC(=O)CC(O)CC(O)CC(O)CC(=O)CCCC(=O)CC(=O)OC1C(C)CC(C)C(O)CC(=O)c1ccc(N)cc1 (centres unmarked) [Candicidin]	0 (compounds with IC50 > 20 μM, percentage inhibition <80% at 20 µM or 50 μM, or percentage enzyme inhibition <50% at 10 µM were labelled as INACTIVE)

Molecule	Class (MPro activity class)
COc1cc(Br)cc(C=NN2C(=O)c3ccccc3NC2c2cc(Br)cc(OC)c2O)c1O (centres unmarked) [QZ3]	0 (compounds with IC50 > 20 μM, percentage inhibition <80% at 20 µM or 50 μM, or percentage enzyme inhibition <50% at 10 µM were labelled as INACTIVE)
O=C(C=Cc1ccc(O)c(O)c1)OC1CC(O)(C(=O)O)CC(OC(=O)C=Cc2ccc(O)c(O)c2)C1O (centres unmarked) [Isochlorogenic acid A]	0 (compounds with IC50 > 20 μM, percentage inhibition <80% at 20 µM or 50 μM, or percentage enzyme inhibition <50% at 10 µM were labelled as INACTIVE)
Forsythoside B	1 (Compounds with IC50 < 10 µM or with a percentage of enzyme inhibition >50% at 10 µM were labelled as ACTIVE)
Cc1ccncc1NC(=O)Cc1cc(Cl)cc(OC2CC(=O)N2)c1 (centres unmarked) [TRY-UNI-2eddb1ff-7]	1 (Compounds with IC50 < 10 µM or with a percentage of enzyme inhibition >50% at 10 µM were labelled as ACTIVE)
CC(NC(=O)C(Cc1ccccc1)NC(=O)OCc1ccccc1)C(=O)CF (centres unmarked) [Z-FA-FMK]	0 (compounds with IC50 > 20 μM, percentage inhibition <80% at 20 µM or 50 μM, or percentage enzyme inhibition <50% at 10 µM were labelled as INACTIVE)
C=C[C@@H]1C[C@]1(NC(=O)[C@@H]1C[C@@H](Oc2ncc(OC)c3ccc(Cl)cc23)CN1C(=O)[C@@H](NC(=O)OC(C)(C)C)C(C)(C)C)C(=O)NS(=O)(=O)C1CC1 [Asunaprevir]	0 (compounds with IC50 > 20 μM, percentage inhibition <80% at 20 µM or 50 μM, or percentage enzyme inhibition <50% at 10 µM were labelled as INACTIVE)
CC(C)[C@H](O)C(=O)N[C@@H](C)C(=O)N[C@@H]1C(=O)N(C)CCc2ccccc21 [Semagacestat]	0 (compounds with IC50 > 20 μM, percentage inhibition <80% at 20 µM or 50 μM, or percentage enzyme inhibition <50% at 10 µM were labelled as INACTIVE)
COc1ccc(CN=c2[nH]c(N3CCC[C@H]3CO)ncc2C(=O)NCc2ncccn2)cc1Cl	0 (compounds with IC50 > 20 μM, percentage inhibition <80% at 20 µM or 50 μM, or percentage enzyme inhibition <50% at 10 µM were labelled as INACTIVE)
O=C(Oc1cncc(Cl)c1)c1cccc2[nH]ccc12 [10_GRL0496]	1 (Compounds with IC50 < 10 µM or with a percentage of enzyme inhibition >50% at 10 µM were labelled as ACTIVE)
CC(C)(C)OC(=O)N[C@H]1CCCCC/C=C\[C@@H]2C[C@@]2(C(=O)NS(=O)(=O)C2CC2)NC(=O)[C@@H]2C[C@@H](OC(=O)N3Cc4cccc(F)c4C3)CN2C1=O [Danoprevir]	0 (compounds with IC50 > 20 μM, percentage inhibition <80% at 20 µM or 50 μM, or percentage enzyme inhibition <50% at 10 µM were labelled as INACTIVE)
O=c1[nH]cc(-c2cc(-c3cc(Cl)cc(OCCc4ccccc4)c3)c(=O)n(-c3cccnc3)c2)c(=O)[nH]1 [compound 15]	1 (Compounds with IC50 < 10 µM or with a percentage of enzyme inhibition >50% at 10 µM were labelled as ACTIVE)
CCCC(C=O)NC(=O)C(CC(C)C)NC(=O)C(CC(C)C)NC(=O)OCc1ccccc1 (stereo not drawn) [MG-115] (Cbz-Leu-Leu-[Nva]-aldehyde; configuration not given here)	1 (Compounds with IC50 < 10 µM or with a percentage of enzyme inhibition >50% at 10 µM were labelled as ACTIVE)
Cc1cccc(C2CN(C(=O)CCl)Cc3ccccc32)c1 (centres unmarked) [NIR-THE-c331be7a-6]	1 (Compounds with IC50 < 10 µM or with a percentage of enzyme inhibition >50% at 10 µM were labelled as ACTIVE)
CCOC(=O)c1ccc(OC(=O)CCCCCNC(=N)N)cc1 [Gabexate]	0 (compounds with IC50 > 20 μM, percentage inhibition <80% at 20 µM or 50 μM, or percentage enzyme inhibition <50% at 10 µM were labelled as INACTIVE)
C#Cc1cccc(Nc2ncnc3cc(OCCOC)c(OCCOC)cc23)c1 [ERLOTINIB]	0 (compounds with IC50 > 20 μM, percentage inhibition <80% at 20 µM or 50 μM, or percentage enzyme inhibition <50% at 10 µM were labelled as INACTIVE)
Nc1nc(N)c2nc(-c3cccc(O)c3)c(-c3cccc(O)c3)nc2n1 [TG100-115]	0 (compounds with IC50 > 20 μM, percentage inhibition <80% at 20 µM or 50 μM, or percentage enzyme inhibition <50% at 10 µM were labelled as INACTIVE)
C=C[C@H]1[C@H](O[C@@H]2O[C@H](CO)[C@@H](O)[C@H](O)[C@H]2O)OC=C(C(=O)OC)[C@H]1CC(=O)O [Secoxyloganin]	0 (compounds with IC50 > 20 μM, percentage inhibition <80% at 20 µM or 50 μM, or percentage enzyme inhibition <50% at 10 µM were labelled as INACTIVE)
COc1ccc2c(c1)CN(C(=O)CCl)C(c1ccccc1)C2 (centres unmarked) [NAU-LAT-64f4b287-4]	1 (Compounds with IC50 < 10 µM or with a percentage of enzyme inhibition >50% at 10 µM were labelled as ACTIVE)
CC(C)CC(NC(=O)OCc1ccccc1)C(=O)NC(C=O)CC1CCNC1=O (centres unmarked) [GC373]	1 (Compounds with IC50 < 10 µM or with a percentage of enzyme inhibition >50% at 10 µM were labelled as ACTIVE)
